Data published in US10144706B2 (BRISTOL-MYERS SQUIBB COMPANY, priority 2016, dated 2018).

Biological target: T1, PD-1/PD-L1 interaction (PD-1-Ig / PD-L1-His) (Homo sapiens, UniProt Q9NZQ7)
T1 construct: hPDL1(18-239)-TVMV-His; TVMV protease site linker (C); made in house; host or cells: HEK293T
Experiment: PD-1/PD-L1 Homogenous Time-Resolved Fluorescence (HTRF) binding assay
Conditions: IC50 range class; PD-L1-His 10 nM, PD-1-Ig 20 nM; read-out: Range or IC50
Description: The ability of the compounds of formula (I) to bind to PD-L1 was investigated using a PD-1/PD-L1 Homogenous Time-Resolved Fluorescence (HTRF) binding assay.
Homogenous Time-Resolved Fluorescence (HTRF) Binding Assay.
The interaction of PD-1 and PD-L1 can be assessed using soluble, purified preparations of the extracellular domains of the two proteins. The PD-1 and PD-L1 protein extracellular domains were expressed as fusion proteins with detection tags, for PD-1, the tag was the Fc portion of Immunoglobulin (PD-1-Ig) and for PD-L1 it was the 6 histidine motif (PD-L1-His). All binding studies were performed in an HTRF assay buffer consisting of dPBS supplemented with 0.1% […] bovine serum albumin and 0.05% (v/v) Tween-20. For the h/PD-L1-His binding assay, inhibitors were pre-incubated with PD-L1-His (10 nM final) for 15 m in 4 μl of assay buffer, followed by addition of PD-1-Ig (20 nM final) in 1 μl of assay buffer and further incubation for 15 m. HTRF detection was achieved using europium crypate-labeled anti-Ig (1 nM final) and allophycocyanin (APC) labeled anti-His (20 nM final). Antibodies were diluted in HTRF detection buffer and 5 μl was dispensed on top of the binding reaction. […] Additional binding assays were established between the human proteins PD-1-Ig/PD-L2-His (20 & 5 nM, respectively) and CD80-His/PD-L1-Ig (100 & 10 nM, respectively). […]

T1 sequence (Q9NZQ7 with tags, fused parts or gaps): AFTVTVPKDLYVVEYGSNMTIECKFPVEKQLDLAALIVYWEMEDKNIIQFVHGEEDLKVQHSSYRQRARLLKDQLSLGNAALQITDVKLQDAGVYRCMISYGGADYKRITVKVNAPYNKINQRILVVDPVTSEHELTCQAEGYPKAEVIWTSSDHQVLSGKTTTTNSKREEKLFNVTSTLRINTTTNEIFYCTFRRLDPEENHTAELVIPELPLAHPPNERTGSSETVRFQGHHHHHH

| Compound | IC50 |
| --- | --- |
| Cc1c(OCCCN(CC#N)C[C@H](O)CO)cccc1-c1cccc(OCCCN(CC#N)C[C@H](O)CO)c1C [Example 2100, 2,2′-((((2,2′-dimethyl-[1,1′-biphenyl]-3,3′-diyl)bis(oxy))bis(propane-3,1-diyl))bis(((S)-2,3-dihydroxypropyl)azanediyl))diacetonitrile] | 20.1 to 90 nM |
| Cc1c(OCCCN(CCO)Cc2ccccc2)cccc1-c1cccc(OCCCN2CC[C@@H](O)C2)c1C [Example 2072, (R)-1-(3-((3′-(3-(benzyl(2-hydroxyethyl)amino)propoxy)-2,2′-dimethyl-[1,1′-biphenyl]-3-yl)oxy)propyl)pyrrolidin-3-ol] | 90.1 to 1000 nM |
| Cc1c(OCCCN2CCN(CC(=O)NC(C)C)CC2)cccc1-c1cccc(OCCCN2CC[C@@H](O)C2)c1C [Example 2109, (R)-2-(4-(3-((3′-(3-(3-hydroxypyrrolidin-1-yl)propoxy)-2,2′-dimethyl-[1,1′-biphenyl]-3-yl)oxy)propyl)piperazin-1-yl)-N-isopropylacetamide] | 90.1 to 1000 nM |
| Cc1c(OCCCN(C)CCO)cccc1-c1cccc(OCCCN2CC[C@@H](O)C2)c1C [Example 2034, (R)-1-(3-((3′-(3-((2-hydroxyethyl)(methyl)amino)propoxy)-2,2′-dimethyl-[1,1′-biphenyl]-3-yl)oxy)propyl)pyrrolidin-3-ol] | 20.1 to 90 nM |
| Cc1c(OCCCNCCc2ncn(C)c2Cl)cccc1-c1cccc(OCCCN2CC[C@@H](O)C2)c1C [Example 2061] | 20.1 to 90 nM |
| Cc1c(OCCCN2CCCC(C(N)=O)C2)cccc1-c1cccc(OCCCN2CC[C@@H](O)C2)c1C (stereo partly drawn) [Example 2019, 1-(3-((3′-(3-((R)-3-hydroxypyrrolidin-1-yl)propoxy)-2,2′-dimethyl-[1,1′-biphenyl]-3-yl)oxy)propyl)piperidine-3-carboxamide] | 0.04 to 20 nM |
| Cc1c(OCCCN(C)CCc2ccccc2)cccc1-c1cccc(OCCCN2CC[C@@H](O)C2)c1C [Example 2110, (R)-1-(3-((2,2′-dimethyl-3′-(3-(methyl(phenethyl)amino)propoxy)-[1,1′-biphenyl]-3-yl)oxy)propyl)pyrrolidin-3-ol] | 90.1 to 1000 nM |
| Cc1c(OCCCN2CC[C@@H](O)C2)cccc1-c1ccc2c(c1)OC(CCN1CC[C@@H](O)C1)CO2 (single isomer, unassigned) [Example 3031] | 0.04 to 20 nM |
| Cc1cc(OCc2cccc(-c3cccc(COc4cc(C)c(CN5CCCC[C@H]5C(=O)O)cc4Cl)c3C)c2C)c(Cl)cc1CN1CCCC[C@H]1C(=O)O [Example 5501, (2S,2′S)-1,1′-(((((2,2′-dimethyl-[1,1′-biphenyl]-3,3′-diyl)bis(methylene))bis(oxy))bis(5-chloro-2-methyl-4,1-phenylene))bis(methylene))bis(piperidine-2-carboxylic acid)] | 0.04 to 20 nM |
| Cc1c(COc2cc(OCc3ccc(-n4cccn4)nc3)c(CN(C)C(CO)CO)cc2Cl)cccc1-c1cccc(COc2cc(OCc3ccc(-n4cccn4)nc3)c(CN(C)C(CO)CO)cc2Cl)c1C [Example 5028, 2,2′-((((((2,2′-dimethyl-[1,1′-biphenyl]-3,3′-diyl)bis(methylene))bis(oxy))bis(2-((6-(1H-pyrazol-1-yl)pyridin-3-yl)methoxy)-5-chloro-4,1-phenylene))bis(methylene))bis(methylazanediyl))bis(propane-1,3-diol)] | 90.1 to 1000 nM |
| Cc1cc(OCc2cccc(-c3cccc(COc4cc(OCc5cncc(C#N)c5)c(CN[C@@](C)(CO)C(=O)O)cc4Cl)c3C)c2C)c(Cl)cc1CN[C@@](C)(CO)C(=O)O [Example 5507, (S)-2-((4-((3′-((4-((((S)-2-carboxy-1-hydroxypropan-2-yl)amino)methyl)-2-chloro-5-((5-cyanopyridin-3-yl)methoxy)phenoxy)methyl)-2,2′-dimethyl-[1,1′-biphenyl]-3-yl)methoxy)-5-chloro-2-methylbenzyl)amino)-3-hydroxy-2-methylpropanoic acid] | 0.04 to 20 nM |
| CCN(CC)CCCNCc1cc(Cl)c(OCc2cccc(-c3cccc(COc4cc(OCc5cncc(C#N)c5)c(CNCCCN(CC)CC)cc4Cl)c3)c2)cc1OCc1cncc(C#N)c1 [Example 40070] | 0.04 to 20 nM |
| Cc1c(NC(=O)NCCN2CC[C@@H](O)C2)cccc1-c1cccc(OCCCN2CC[C@@H](O)C2)c1C [Example 3017, 1-(2-((R)-3-hydroxypyrrolidin-1-yl)ethyl)-3-(3′-(3-((R)-3-hydroxypyrrolidin-1-yl)propoxy)-2,2′-dimethyl-[1,1′-biphenyl]-3-yl)urea] | 1000 to 10000 nM |
| Cc1c(OCCCN(CCO)CCO)cccc1-c1cccc(OCCCN(CCO)CCO)c1C [Example 2077, 2,2′,2″,2′″-((((2,2′-dimethyl-[1,1′-biphenyl]-3,3′-diyl)bis(oxy))bis(propane-3,1-diyl))bis(azanetriyl))tetrakis(ethan-1-ol)] | 20.1 to 90 nM |
| Cc1cc(CN2CCCC[C@H]2C(=O)O)ccc1OCc1cccc(-c2cccc(COc3ccc(CN4CCCC[C@H]4C(=O)O)cc3C)c2C)c1C [Example 5500, (2S,2′S)-1,1′-(((((2,2′-dimethyl-[1,1′-biphenyl]-3,3′-diyl)bis(methylene))bis(oxy))bis(3-methyl-4,1-phenylene))bis(methylene))bis(piperidine-2-carboxylic acid)] | 90.1 to 1000 nM |
| Cc1c(OCCCNCc2ccccn2)cccc1-c1cccc(OCCCN2CC[C@@H](O)C2)c1C [Example 2024, (R)-1-(3-((2,2′-dimethyl-3′-(3-((pyridin-2-ylmethyl)amino)propoxy)-[1,1′-biphenyl]-3-yl)oxy)propyl)pyrrolidin-3-ol] | 20.1 to 90 nM |

Second part, the compound after the results:

| IC50 | Compound |
| --- | --- |
| 0.04 to 20 nM | Cc1c(COc2cc(OCc3cncc(C#N)c3)c(CN(Cc3cncs3)C(CCO)C(=O)O)cc2Cl)cccc1-c1cccc(COc2cc(OCc3cncc(C#N)c3)c(CN(Cc3cncs3)C(CCO)C(=O)O)cc2Cl)c1C (stereo not shown) [Example 40990] |
| 0.04 to 20 nM | Cc1c(COc2cc(OCc3cncc(C#N)c3)c(C(=O)N3CCOCC3)cc2Cl)cccc1-c1cccc(COc2cc(OCc3cncc(C#N)c3)c(C(=O)N3CCOCC3)cc2Cl)c1C [Example 80100] |
| 0.04 to 20 nM | Cc1c(COc2cc(OCc3cncc(C#N)c3)c(CO)cc2Cl)cccc1-c1cccc(COc2cc(OCc3cncc(C#N)c3)c(CNCC(O)CC(=O)O)cc2Cl)c1C (stereo not shown) [Example 50070] |
| 20.1 to 90 nM | Cc1c(COc2cc(OCc3cncc(C#N)c3)c(CN[C@H](C(=O)O)[C@@H](C)OCc3ccccc3)cc2Cl)cccc1-c1cccc(COc2cc(OCc3cncc(C#N)c3)c(CN[C@H](C(=O)O)[C@@H](C)OCc3ccccc3)cc2Cl)c1C [Example 41050] |
| 0.04 to 20 nM | Cc1c(COc2cc(OCc3cncc(C#N)c3)c(CN3CCOC[C@@H]3C(=O)O)cc2Cl)cccc1-c1cccc(COc2cc(OCc3cncc(C#N)c3)c(CN3CCOC[C@@H]3C(=O)O)cc2Cl)c1C [Example 40370] |
| 0.04 to 20 nM | Cc1c(COc2cc(OCc3cncc(C#N)c3)c(CN(C)[C@@H](CCO)C(=O)O)cc2Cl)cccc1-c1cccc(COc2cc(OCc3cncc(C#N)c3)c(CN(C)[C@@H](CCO)C(=O)O)cc2Cl)c1C [Example 40760] |
| 0.04 to 20 nM | CC(CO)(NCc1cc(Cl)c(OCc2cccc(-c3cccc(COc4cc(OCc5cncc(C#N)c5)c(CO)cc4Cl)c3Cl)c2Cl)cc1OCc1cncc(C#N)c1)C(=O)O (stereo not shown) [Example 50380] |
| 0.04 to 20 nM | C[C@@](CO)(NCc1cc(Cl)c(OCc2cccc(-c3cccc(COc4cc(OCc5cncc(C#N)c5)c(CN[C@@](C)(CO)C(=O)O)cc4Cl)c3Cl)c2Cl)cc1OCc1cncc(C#N)c1)C(=O)O [Example 40140] |
| 20.1 to 90 nM | Cc1c(COc2cc(OCc3cncc(C#N)c3)c(CO)cc2Cl)cccc1-c1cccc(COc2cc(OCc3cncc(C#N)c3)c(CN[C@@H](CO)CC(=O)O)cc2Cl)c1C [Example 50310] |
| 20.1 to 90 nM | COC(=O)CC(O)CNCc1cc(Cl)c(OCc2cccc(-c3cccc(COc4cc(OCc5cncc(C#N)c5)c(CNC/C=C\C(=O)O)cc4Cl)c3C)c2C)cc1OCc1cncc(C#N)c1 (stereo not shown) [Example 40720] |
| 0.04 to 20 nM | Cc1c(COc2cc(OCc3cncc(C#N)c3)c(CNC(Cc3ccccc3)C(=O)O)cc2Cl)cccc1-c1cccc(COc2cc(OCc3cncc(C#N)c3)c(CNC(Cc3ccccc3)C(=O)O)cc2Cl)c1C (stereo not shown) [Example 40480] |
| 0.04 to 20 nM | Cc1c(COc2cc(OCc3cncc(C#N)c3)c(CO)cc2Cl)cccc1-c1cccc(COc2cc(OCc3cncc(C#N)c3)c(CN[C@@H](CCO)C(=O)O)cc2Cl)c1C [Example 50150] |
| 0.04 to 20 nM | Cc1c(COc2cc(OCc3cncc(C#N)c3)c(CN[C@@H](CO)C(=O)O)cc2Cl)cccc1-c1cccc(COc2cc(OCc3cncc(C#N)c3)c(CN[C@H](CO)C(=O)O)cc2Cl)c1C [Example 40260] |
| 0.04 to 20 nM | Cc1c(COc2cc(O)c(CN[C@@](C)(CO)C(=O)O)cc2Cl)cccc1-c1cccc(COc2cc(O)c(CN[C@@](C)(CO)C(=O)O)cc2Cl)c1C [Example 40160] |
| 0.04 to 20 nM | Cc1c(COc2cc(OCc3cncc(C#N)c3)c(CNC3CCC[C@@H]3C(=O)O)cc2Cl)cccc1-c1cccc(COc2cc(OCc3cncc(C#N)c3)c(CN[C@@H]3CCC[C@@H]3C(=O)O)cc2Cl)c1C (stereo partly shown) [Example 40510] |
